Measured values published in ChEMBL document CHEMBL6096662, “Discovery and structure-activity relationship study of nicotinamide derivatives as DNA demethylase ALKBH2 inhibitors” (Eur J Med Chem, 2025).
Each block holds one compound with its values, some of them ahead of it.

Experiments:
U-87 MG = assay: Anti-viability activity against human U87 cells by MTT assay; format: functional, cell-based, U-87MG ATCC
[1] = target: T1, DNA oxidative demethylase ALKBH2 (Homo sapiens, UniProt Q6NS38); assay: Inhibition of ALKBH2 (56 to 261 residues)(unknown origin) extracted from Escherichia coli BL21 (DE3) using 5'-GAAGACCT(1meA)GGCGTCC-3'/5'- CTGGGACGCCTAGGTCTTCACTG-3' as substrate incubated for 30 mins by FP assay
T1 sequence (Q6NS38 whole entry): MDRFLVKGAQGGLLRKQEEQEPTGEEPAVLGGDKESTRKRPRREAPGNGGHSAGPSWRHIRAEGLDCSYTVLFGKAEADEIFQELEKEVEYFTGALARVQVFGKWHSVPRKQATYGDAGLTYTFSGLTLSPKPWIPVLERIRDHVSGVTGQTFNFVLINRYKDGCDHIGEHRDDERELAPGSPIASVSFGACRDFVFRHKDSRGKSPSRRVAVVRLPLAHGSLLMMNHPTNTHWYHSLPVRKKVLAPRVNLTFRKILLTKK

[2] = Inhibition of demethylase activity of ALKBH1 (19 to 369 residues)(unknown origin) extracted from Escherichia coli BL21 (DE3) using 6meA unpaired dsDNA as substrate incubated for 30 mins by methylation-sensitive restriction enzyme digestion assay; design: species or system Homo sapiens
[3] = target: T2, Alpha-ketoglutarate-dependent dioxygenase alkB homolog 3 (Homo sapiens, UniProt Q96Q83); assay: Inhibition of demethylase activity of ALKBH3 (70 to 286 residues)(unknown origin) extracted from Escherichia coli BL21 (DE3) using 1meA dsDNA as substrate incubated for 30 mins by methylation-sensitive restriction enzyme digestion assay
T2 sequence (Q96Q83 whole entry): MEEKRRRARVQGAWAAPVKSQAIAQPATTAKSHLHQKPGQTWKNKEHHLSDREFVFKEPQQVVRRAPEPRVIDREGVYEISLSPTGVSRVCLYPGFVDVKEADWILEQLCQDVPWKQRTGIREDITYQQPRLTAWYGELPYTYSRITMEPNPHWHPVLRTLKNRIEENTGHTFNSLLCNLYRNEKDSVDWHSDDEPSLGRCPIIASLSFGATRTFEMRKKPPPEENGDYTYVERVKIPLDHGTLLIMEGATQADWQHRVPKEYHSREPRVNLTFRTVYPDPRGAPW

[4] = target: T1, DNA oxidative demethylase ALKBH2; assay: Inhibition of ALKBH2 (56 to 261 residues)(unknown origin) extracted from Escherichia coli BL21 (DE3) using 5meC DNA as substrate by FP assay
[5] = target: T1, DNA oxidative demethylase ALKBH2; assay: Binding affinity to ALKBH2 (56 to 261 residues)(unknown origin) assessed as dissociation constant by ITC assay
[6] = target: Alpha-ketoglutarate-dependent dioxygenase FTO (Homo sapiens, UniProt Q9C0B1); assay: Inhibition of demethylase activity of FTO (35 to 505 residues)(unknown origin) extracted from Escherichia coli BL21 (DE3) using 6meA dsDNA as substrate incubated for 30 mins by methylation-sensitive restriction enzyme digestion assay
[7] = target: T1, DNA oxidative demethylase ALKBH2; assay: Inhibition of demethylase activity of ALKBH2 (56 to 261 residues)(unknown origin) extracted from Escherichia coli BL21 (DE3) using 1meA dsDNA as substrate incubated for 30 mins in presence of alpha-KG by methylation-sensitive restriction enzyme digestion assay
RNA demethylase ALKBH5 = RNA demethylase ALKBH5 (Homo sapiens, UniProt Q6P6C2); assay: Inhibition of demethylase activity of ALKBH5 (66 to 292 residues)(unknown origin) extracted from Escherichia coli BL21 (DE3) using 6meA dsDNA as substrate incubated for 30 mins by methylation-sensitive restriction enzyme digestion assay
RNA demethylase ALKBH5, sequence (Q6P6C2 whole entry, the tested form may be a part): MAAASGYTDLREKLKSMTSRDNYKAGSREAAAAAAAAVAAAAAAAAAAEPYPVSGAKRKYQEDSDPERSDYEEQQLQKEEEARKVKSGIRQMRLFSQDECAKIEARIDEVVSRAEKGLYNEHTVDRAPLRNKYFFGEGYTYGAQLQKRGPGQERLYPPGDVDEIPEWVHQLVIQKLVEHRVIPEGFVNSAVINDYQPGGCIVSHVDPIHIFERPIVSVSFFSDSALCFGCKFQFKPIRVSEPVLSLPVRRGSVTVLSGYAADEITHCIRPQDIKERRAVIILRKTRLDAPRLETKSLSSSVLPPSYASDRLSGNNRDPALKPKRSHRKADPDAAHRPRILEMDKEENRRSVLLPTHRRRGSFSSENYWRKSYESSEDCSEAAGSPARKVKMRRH

Alpha-ketoglutarate-dependent dioxygenase FTO, sequence (Q9C0B1 whole entry, the tested form may be a part): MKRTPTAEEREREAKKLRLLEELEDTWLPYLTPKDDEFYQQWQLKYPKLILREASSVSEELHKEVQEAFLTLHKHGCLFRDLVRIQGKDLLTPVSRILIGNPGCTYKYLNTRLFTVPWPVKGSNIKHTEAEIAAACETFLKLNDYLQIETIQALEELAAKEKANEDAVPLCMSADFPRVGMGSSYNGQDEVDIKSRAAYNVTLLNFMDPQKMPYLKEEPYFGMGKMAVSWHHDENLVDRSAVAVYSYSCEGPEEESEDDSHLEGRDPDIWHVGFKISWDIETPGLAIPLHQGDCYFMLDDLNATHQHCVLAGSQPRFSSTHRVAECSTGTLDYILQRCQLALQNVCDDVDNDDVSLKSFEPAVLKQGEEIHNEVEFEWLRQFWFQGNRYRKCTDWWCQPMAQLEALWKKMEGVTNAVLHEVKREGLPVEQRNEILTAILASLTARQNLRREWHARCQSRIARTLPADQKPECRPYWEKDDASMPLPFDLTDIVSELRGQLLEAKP

Compound: CCOC(=O)c1cnn(-c2ccc(C(=O)NC(c3ccccc3)C(C)(C)C)cn2)c1 (stereo not drawn)
IC50 (U-87 MG): 4.56 µM

Compound: O=C(O)c1cnn(-c2ccccc2)c1
IC50 [1]: 86700 nM

Continued, values first:

IC50 [1]: 73 nM
Compound: O=C(O)c1cnn(-c2ccc(C(=O)N3CCCC(c4ccccc4)C3)cn2)c1 (stereo not drawn)

IC50 [2]: > 200 µM
IC50 [3]: > 200 µM
IC50 [4]: 47 nM
Kd [5]: 226 nM
IC50 [6]: > 200 µM
IC50 [7]: 1480 nM
IC50 (U-87 MG): 103 µM
IC50 [1]: 31 nM
IC50 (RNA demethylase ALKBH5): > 200 µM
Compound: CC(C)(C)C(NC(=O)c1ccc(-n2cc(C(=O)O)cn2)nc1)c1ccccc1 (stereo not drawn)

IC50 [1]: 378 nM
Compound: COC1CCN(C(=O)c2ccc(-n3cc(C(=O)O)cn3)nc2)C1 (stereo not drawn)
